Source: US7700560B2 (University of Maryland, Baltimore County, priority 2003, dated 2010)
Read-outs that look alike come from different tables or passages of the source.

Experiments:
human GlxI [1] = molecular target: T1, human GlxI (Homo sapiens, UniProt Q04760); assay: Competitive inhibition constants (Kis) with human GlxI; type: biochemical; settings: for binds more tightly to hGlxI than to yGlxI: ratio of Ki yGlxI / hGlxI
T1 construct: hGlxI from human erythrocytes; from tissue; host or cells: human erythrocytes
T1 sequence (Q04760 2-184 limits assumed): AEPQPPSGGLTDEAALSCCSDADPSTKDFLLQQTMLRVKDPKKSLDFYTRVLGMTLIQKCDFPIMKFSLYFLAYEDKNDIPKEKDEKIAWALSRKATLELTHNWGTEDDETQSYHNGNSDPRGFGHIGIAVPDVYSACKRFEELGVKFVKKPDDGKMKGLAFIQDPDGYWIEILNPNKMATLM
Experimental: (§1) Competitive inhibition constants (Kis) of bivalent and monovalent enzyme inhibitors with human GlxI or yeast GlxI (yGlxI) were obtained from the change in the initial rates of product formation at various concentrations of the substrate in the presence or absence of the inhibitor. To a 1 ml cuvette containing 50 mM sodium phosphate buffer, pH 7.0, 0.5 mM EDTA, 25° C. and different concentrations of thiohemiacetal substrates with fixed concentrations of inhibitor was added approximately 0.02 U of enzyme. The initial rates of product formation were followed on the basis of the increase in absorbancy at 240 nm. Inhibition constants were obtained by fitting the initial rate data to the equation for competitive inhibition.

yeast GlxI = molecular target: T2, yeast GlxI (Saccharomyces cerevisiae, UniProt P50107); assay: Competitive inhibition constants (Kis) with yeast GlxI; type: biochemical; settings: sodium phosphate buffer, 50 mM, pH 7, 25° C.; mean (±S.D.) duplicate; read-out: Ki, yGlxI
T2 sequence (P50107 1-326): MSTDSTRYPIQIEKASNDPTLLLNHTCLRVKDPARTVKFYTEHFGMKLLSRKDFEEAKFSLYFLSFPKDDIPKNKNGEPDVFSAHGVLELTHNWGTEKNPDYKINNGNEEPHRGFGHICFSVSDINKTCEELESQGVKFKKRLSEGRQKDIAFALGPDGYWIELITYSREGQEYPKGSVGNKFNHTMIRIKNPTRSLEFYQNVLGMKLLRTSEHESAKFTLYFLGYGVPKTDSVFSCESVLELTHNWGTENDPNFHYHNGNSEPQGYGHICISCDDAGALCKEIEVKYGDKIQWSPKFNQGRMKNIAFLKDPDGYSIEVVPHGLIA
Experimental: as §1

bovine liver GlxII [2] = molecular target: T3, bovine liver GlxII (Bos taurus, UniProt Q3B7M2); assay: Competitive inhibition constants (Kis) with bovine liver GlxII; type: biochemical; settings: sodium phosphate buffer, 50 mM, pH 7, 25° C.; mean (±S.D.) duplicate; read-out: Ki, bGlxII
T3 construct: yeast GlxI (yGlxI) and bovine liver GlxII (bGlXII); from tissue; host or cells: bovine liver

[3] = system: murine leukemia L1210 cells; settings: cited from earlier work; for IC50: after 72 hours of incubation, diethyl ester prodrugs, read-out: IC50, growth of L1210 cells
[4] = system: human prostate PC3 tumors; settings: cited from earlier work
[5] = system: murine melanotic melanoma; settings: cited from earlier work; for efficacy relative to positive control adriamycin: at much higher dosages than adriamycin
human colon HT29 tumors = settings: cited from earlier work
bovine liver GlxII [6] = molecular target: T3, bovine liver GlxII; settings: cited from earlier work
GSH peroxidase = assay: Inhibition of GSH peroxidase; type: biochemical; settings: up to an inhibitor concentration of 20 μM
[7] = molecular target: T4, human placental GSH transferase (Homo sapiens, UniProt P09211); assay: Inhibition of human placental GSH transferase; type: biochemical; settings: up to an inhibitor concentration of 20 μM
T4 construct: human placental GSH transferase; from tissue; host or cells: human placenta
T4 sequence (P09211 2-210 limits assumed): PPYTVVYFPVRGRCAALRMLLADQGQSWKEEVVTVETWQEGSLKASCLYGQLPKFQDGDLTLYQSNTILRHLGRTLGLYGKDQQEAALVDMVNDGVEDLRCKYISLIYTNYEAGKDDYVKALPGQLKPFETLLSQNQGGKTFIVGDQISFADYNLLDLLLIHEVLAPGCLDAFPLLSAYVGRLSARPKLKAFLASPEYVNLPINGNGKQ

[8] = system: DMS114 lung and DU145 prostate xenografts; settings: cited from earlier work
human GlxI [9] = molecular target: T1, human GlxI; assay: Irreversible inactivation kinetics of human GlxI; type: biochemical
Experimental: Incubation mixtures of enzyme (10 units/ml) and known concentrations of inactivator in phosphate buffer were separately incubated in plastic bullet tubes maintained at 25° C. in a water bath. Aliquots were removed, diluted into a quartz cuvette containing one ml GSH-methylglyoxal-thiohemiacetal, and the rate of product formation (ΔOD (240)) monitored as a function of time. From the initial rate of product formation, the activity of the enzyme was calculated. The slope of a plot of in (fraction of enzyme activity remaining) versus time gives the apparent first-order rate constant (kinact) for inactivation of hGlxI. A plot of kinact versus inactivator concentration (FIG. 7.) gives the dissociation constant (Kd and the maximum value of kinact).

[10] = sodium phosphate buffer, 50 mM, pH 7, 25° C., mean (±S.D.) triplicate, read-out: Ki, hGlxI
[11] = glycerol (20%) in sodium phosphate buffer, pH 7, 25° C.

With “[CHG (β-ala)7]2suberate diamide [[CHG(β-Ala)n]2sub., n = 7]” the Ki (human GlxI [1]; [10]) was 0.97 ± 0.02 nM, the Ki (yeast GlxI) was 4100 ± 500 nM and the Ki (bovine liver GlxII [2]) was 79 ± 8 nM.
For CCOC(=O)CNC(=O)[C@H](CSC(=O)N(O)c1ccc(Cl)cc1)NC(=O)CC[C@H](N)C(=O)OCC [CHG(Et)2], the “toxicity to L1210 cells versus normal splenic lymphocytes in culture” value ([3]; Kavarana et al 1999) is given as “significantly more toxic to murine leukemia L1210 cells than to normal splenic lymphocytes”, the IC50 [3] is given as 5000 nM and the haemopoetic toxicity ([4]; PC3 tumor-bearing mice) is given as “without the cisplatin-associated haemopoetic toxicity”. For the same compound, the “growth of PC3 tumors” value ([4]; bolus i.v. administration) was “inhibited the growth”, the “potency relative to positive control cisplatin” value ([4]; bolus i.v. administration) was “as good as the positive control cisplatin” and the “effect on PC3 tumors” value ([4]; continuous infusion over 12 days) was “no effect was observed”. For the same compound, the “efficacy relative to positive control adriamycin” value [5] was “as effective as the positive control adriamycin”, the “accumulation of drug in melanoma” value ([5]; following i.v. bolus administration) was “significant accumulation of drug in melanoma” and the “efficacy against HT29 tumors” value (human colon HT29 tumors; bolus administration) was “efficacy was not observed”. For the same compound, the “potency relative to positive control vincristin” value (human colon HT29 tumors; continuous i.v. infusion) was “as good as the positive control vincristin” and the side-effects (human colon HT29 tumors; continuous i.v. infusion) was “without any detectable side-effects”.
For N[C@@H](CCC(=O)N[C@@H](CSC(=O)N(O)c1ccccc1)C(=O)NCC(=O)O)C(=O)O [S—(N-phenyl-N-hydroxycarbamoyl)glutathione], the “substrate for bovine liver GlxII” value (bovine liver GlxII [6]) is given as “substrates for bovine liver GlxII”.
With O=C(O)CNC(=O)[C@H](CSC(=O)N(O)c1ccc(Cl)cc1)NC(=O)CC[C@H](NC(=O)CCNC(=O)CCNC(=O)CCNC(=O)CCNC(=O)CCNC(=O)CCNC(=O)CCCCCCC(=O)NCCC(=O)NCCC(=O)NCCC(=O)NCCC(=O)NCCC(=O)NCCC(=O)N[C@@H](CCC(=O)N[C@@H](CSC(=O)N(O)c1ccc(Cl)cc1)C(=O)NCC(=O)O)C(=O)O)C(=O)O [[CHG(β-Ala)n]2sub., n = 6, [CHG (β-ala)6]2suberate diamide] the “mode of inhibition of hGlxI” value (human GlxI [1]; hGlxI from human erythrocytes, reciprocal plot FIG. 4) was “competitive inhibitor”, the “binding selectivity hGlxI versus bGlxII” value (human GlxI [1]; ratio of Ki bGlxII / hGlxI) was 148 fold and the “binds more tightly to hGlxI than to yGlxI” value (human GlxI [1]) was “about 7500 fold”. For the same compound, the Ki (human GlxI [1]; [10]) was 0.96 ± 0.06 nM, the Ki (yeast GlxI) was 7200 ± 100 nM and the Ki (bovine liver GlxII [2]) was 142 ± 1 nM. For the same compound, the “inhibitory activity on GSH peroxidase” value (GSH peroxidase) was “no inhibitory activity” and the “inhibitory activity on human placental GSH transferase” value [7] was “no inhibitory activity”.
O=C(O)CNC(=O)C(CSC(=O)N(O)c1ccc(Cl)cc1)NC(=O)CCC(NC(=O)CCNC(=O)CCNC(=O)CCCCCCC(=O)NCCC(=O)NCCC(=O)NC(CCC(=O)NC(CSC(=O)N(O)c1ccc(Cl)cc1)C(=O)NCC(=O)O)C(=O)O)C(=O)O (stereo not drawn) [[CHG(β-Ala)n]2sub., n = 2, [CHG(β-ala)2]2suberate diamide] gave a Ki (human GlxI [1]; [10]) of 75.9 ± 7.4 nM and a Ki (bovine liver GlxII [2]) of 50 ± 5 nM.
For CCOC(=O)CNC(=O)C(CSC(=O)N(O)c1ccc(Br)cc1)NC(=O)CCC(N)C(=O)OCC (stereo not drawn) [BHG(Et)2], the IC50 [3] is listed as 16000 nM.
In the case of N[C@@H](CCC(=O)N[C@@H](CSCc1ccc(Br)cc1)C(=O)NCC(=O)O)C(=O)O [(S-p-bromobenzyl)glutathione (BBG), (S-p-bromobenzyl)glutathione], the “efficacy against human lung tumors (DMS114) in mice” value ([8]; dosages of 100 mg/kg) is listed as “effective” and the adverse side effects ([8]; during the 21 days of administration, 100 mg/kg) is listed as “no evidence of adverse side effects”.
In the case of CN(O)C(=O)SC[C@H](NC(=O)CC[C@H](N)C(=O)O)C(=O)NCC(=O)O [S—(N-methyl-N-hydroxycarbamoyl)glutathione], the “substrate for bovine liver GlxII” value (bovine liver GlxII [6]) is listed as “substrates for bovine liver GlxII”.
In the case of N[C@@H](CCC(=O)N[C@@H](CSC(=O)N(O)c1ccc(Br)cc1)C(=O)NCC(=O)O)C(=O)O [BHG, S—(N-p-bromophenyl-N-hydroxy-carbamoyl)glutathione], the “substrate for bovine liver GlxII” value (bovine liver GlxII [6]) is given as “substrates for bovine liver GlxII”.
For NCCC(=O)NC(CCC(=O)NC(CSC(=O)N(O)c1ccc(Cl)cc1)C(=O)NCC(=O)O)C(=O)O (stereo not drawn) [CHG(β-Ala)n, n = 1], the Ki (human GlxI [1]; [10]) was 330 ± 6 nM and the Ki (bovine liver GlxII [2]) was 1200 ± 12 nM.
In the case of O=C(O)CNC(=O)[C@H](CSC(=O)N(O)c1ccc(Cl)cc1)NC(=O)CC[C@H](NC(=O)CCNC(=O)CCCCCCC(=O)NCCC(=O)N[C@@H](CCC(=O)N[C@@H](CSC(=O)N(O)c1ccc(Cl)cc1)C(=O)NCC(=O)O)C(=O)O)C(=O)O [[CHG(β-Ala)n]2sub., n = 1, [CHG(β-ala)]2Suberate Diamide], the Ki (human GlxI [1]; [10]) is reported as 70.1 ± 1.3 nM, the Ki (yeast GlxI) is reported as 3000 ± 200 nM and the Ki (bovine liver GlxII [2]) is reported as 35 ± 4 nM.
In the case of NC(CCC(=O)NC(CSC(=O)N(O)c1ccc(Cl)cc1)C(=O)NCC(=O)OC1CCCC1)C(=O)OC1CCCC1 (stereo not drawn) [CHG(cyclopentyl)2], the “efficacy relative to positive control adriamycin” value [5] is listed as “as effective as the positive control adriamycin”.
For CCOC(=O)CNC(=O)C(CSC(=O)N(O)c1ccccc1)NC(=O)CCC(N)C(=O)OCC (stereo not drawn) [PHG(Et)2], the IC50 [3] is listed as 63000 nM.
For “N-(tri-beta-ala hydroxyethylamide ethylenediamine bis(hexanedioic acid O-carbonylethyl)S—(N-p-bromophenyl-N-hydroxy-carbamoyl)glutathione [polyBHG2-54]”, the Ki (human GlxI [1]; competitive inhibition, read-out: Ki values, human GlxI) was 0.3 nM.
With O=C(O)CNC(=O)C(CSC(=O)N(O)c1ccc(Cl)cc1)NC(=O)CCC(NC(=O)CCNC(=O)CCNC(=O)CCNC(=O)CCNC(=O)CCNC(=O)CCCCCCC(=O)NCCC(=O)NCCC(=O)NCCC(=O)NCCC(=O)NCCC(=O)NC(CCC(=O)NC(CSC(=O)N(O)c1ccc(Cl)cc1)C(=O)NCC(=O)O)C(=O)O)C(=O)O (stereo not drawn) [[CHG(β-Ala)n]2sub., n = 5, [CHG (β-ala)5]2suberate diamide] the Ki (human GlxI [1]; [10]) was 7.5 ± 0.5 nM.
Work on O=C(O)CNC(=O)C(CSC(=O)N(O)c1ccc(Cl)cc1)NC(=O)CCC(NC(=O)CCNC(=O)CCNC(=O)CCNC(=O)CCNC(=O)CCCCCCC(=O)NCCC(=O)NCCC(=O)NCCC(=O)NCCC(=O)NC(CCC(=O)NC(CSC(=O)N(O)c1ccc(Cl)cc1)C(=O)NCC(=O)O)C(=O)O)C(=O)O (stereo not drawn) [[CHG(β-Ala)n]2sub., n = 4, [CHG (β-ala)4]2suberate diamide] yielded a Ki (human GlxI [1]; [10]) of 59.6 ± 2 nM and a Ki (yeast GlxI) of 9000 ± 300 nM.
In the case of N[C@@H](CCC(=O)N[C@@H](CSC(=O)N(O)c1ccc(Cl)cc1)C(=O)NCC(=O)O)C(=O)O [CHG, S—(N-p-chlorophenyl-N-hydroxycarbamoyl)glutathione, reference compound], the “binds more tightly to hGlxI than to yGlxI” value (human GlxI [1]) is given as 78 fold, the “protection of the enzyme from inactivation by BPG/BBG” value (human GlxI [9]; reversible inhibitor present) is given as “protects the enzyme from inactivation” and the “substrate for bovine liver GlxII” value (bovine liver GlxII [6]) is given as “substrates for bovine liver GlxII”.
In the case of N[C@@H](CCC(=O)N[C@@H](CSCC(=O)OCCCCOC(=O)CBr)C(=O)NCC(=O)O)C(=O)O, the “irreversible inactivation of human GlxI” value (human GlxI [9]; [11]) is reported as “irreversibly inactivate human GlxI”, the kinact (human GlxI [9]; [11]) is reported as 0.000267 s⁻¹ and the Kd (human GlxI [9]; glycerol (20%) in sodium phosphate buffer, pH 7, 25° C., fit of kobsd vs concentration, read-out: Kd (dissociation constant) for inactivation of human GlxI) is reported as 177000 ± 43000 nM.
O=C(O)CNC(=O)C(CSC(=O)N(O)c1ccc(Cl)cc1)NC(=O)CCC(NC(=O)CCNC(=O)CCNC(=O)CCNC(=O)CCCCCCC(=O)NCCC(=O)NCCC(=O)NCCC(=O)NC(CCC(=O)NC(CSC(=O)N(O)c1ccc(Cl)cc1)C(=O)NCC(=O)O)C(=O)O)C(=O)O (stereo not drawn) [[CHG(β-Ala)n]2sub., n = 3, [CHG(β-ala)3]2suberate diamide] gave a Ki (human GlxI [1]; [10]) of 84.1 ± 2.4 nM.
